# Assay results published in PubChem BioAssay (NCI).
# Values joined by “and” are separate entries in the source; they are usually repeats but may differ in a detail not shown here. Equal values may be shown once.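 Five compound concentrations were applied to cells in 96-well plates for 48 hours; endpoints were derived by simple linear interpolation of the resulting dose-response curve. GI50 = concentration required for 50% inhibition of growth. TGI marks complete inhibition of growth.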 Where a SMILES comes first, the peptide text is derived from it. [ ]: non-standard residue; d: D form. Ava = NCCCCC(=O)O; Mpa = O=C(O)CCS
# Experiments:
# Assay in all cases: NCI tumour cell line growth inhibition, 48 h
# [1] = system: ACHN renal
# [2] = system: HL-60(TB) leukemia
# [3] = system: K-562 leukemia
# [4] = system: LOX IMVI melanoma
# [5] = system: MDA-N
# [6] = system: NCI-H522 lung
# [7] = system: OVCAR-8 ovarian
# [8] = system: SF-295 CNS
# [9] = system: T-47D breast
# [10] = system: TK-10 renal
Structure (SMILES),TGI [1],TGI [2],TGI [3],TGI [4],TGI [5],TGI [6],TGI [7],TGI [8],TGI [9],TGI [10],GI50 [1],GI50 [3],GI50 [4],GI50 [6],GI50 [8],GI50 [2],GI50 [7]
CN1C/C(=C\c2cccs2)C2=NN(c3ccccc3)C(c3cccs3)C2C1 (stereo not given),> 100 µM,4.45 µM,> 100 µM,> 100 µM,3.99 µM,> 100 µM,> 100 µM,> 80.3 µM,96.3 µM,> 100 µM,–,–,–,–,–,–,–
O=C1C=C(NCCc2ccc(O)c([N+](=O)[O-])c2)C(=O)c2[nH]cnc21,> 100 µM,47.8 µM,42.7 µM,> 100 µM,31.2 µM,57.8 µM,68.7 µM,31.1 µM,40.7 µM,> 100 µM,–,–,–,–,–,–,–
O=C(CC(C(=O)c1ccsc1)c1cccs1)c1ccccc1 (stereo not given),> 100 µM,> 100 µM,> 100 µM,> 100 µM,> 100 µM,> 100 µM,> 100 µM,> 100 µM,33.7 µM,> 100 µM,–,–,–,–,–,–,–
O=C(CCCc1cccc2[nH]c3c(c12)CN(Cc1ccccc1)CC3)c1ccc(F)cc1,> 100 µM,10.3 µM,> 100 µM,> 100 µM,> 100 µM,> 91.1 µM,> 100 µM,> 100 µM,> 58.7 µM,> 100 µM,–,–,–,–,–,–,–
Cc1cccc2c(=O)c3cccc([C@H](C)C(=O)O)c3oc12,> 100 µM,> 100 µM,> 100 µM,> 100 µM,> 100 µM,> 100 µM,> 100 µM,> 100 µM,> 100 µM,> 100 µM,–,–,–,–,–,–,–
CC(=O)OCC1OC(n2c(C)c(C)cc(C#N)c2=S)C(OC(C)=O)C(OC(C)=O)C1OC(C)=O (stereo not given),> 100 µM,> 100 µM,> 100 µM,> 100 µM,> 100 µM,> 100 µM,> 100 µM,> 100 µM,> 100 µM,> 100 µM,–,–,–,–,–,–,–
COc1cc(/C=C2\C(=O)N(c3cccc(NC(C)=O)c3)C(c3ccccc3)S2(=O)=O)cc(OC)c1OC (stereo not given),> 100 µM,44.5 µM,> 100 µM,> 100 µM,> 100 µM,> 100 µM,> 100 µM,> 100 µM,> 100 µM,> 100 µM,–,–,–,–,–,–,–
CC(NC(=O)CCS)C(=O)NC(C)C(=O)NC(Cc1c[nH]c2ccccc12)C(=O)NC(Cc1c[nH]cn1)C(=O)NC(CO)C(=O)NC(Cc1c[nH]c2ccccc12)C(=O)NCCCCC(=O)NC(C)C(=O)NC(CCC(N)=O)C(=O)NC(CCCCN)C(=O)NC(C)C(=O)NC(CCCNC(=N)N)C(=O)NC(CCCCN)C(N)=O (stereo not given) ([Mpa]AAWHSW[Ava]AQKARK-NH2; configuration not given here),> 100 µM,65.4 µM,99.4 µM,> 100 µM,> 100 µM,> 100 µM,> 100 µM,> 100 µM,64 µM,> 100 µM,–,–,–,–,–,–,–
CC(=O)C1=C(C)N(c2ccccc2)C2(O)C3=C(C(=O)c4ccccc4C3=O)C(O)=CC12Cl (stereo not given),33.2 µM,49 µM,> 100 µM,> 100 µM,6.88 µM,5.81 µM,> 100 µM,40.6 µM,> 100 µM,33.1 µM,–,–,–,–,–,–,–
CC(C)(C)OC(=O)NC(CSCc1ccc(C(=O)c2ccccc2)cc1)C(=O)N1CCN(CCCCN2c3ccccc3Sc3cc(N=[N+]=[N-])ccc32)CC1 (stereo not given),> 100 µM,> 100 µM,> 100 µM,> 100 µM,> 100 µM,> 100 µM,> 100 µM,> 100 µM,> 100 µM,> 100 µM,–,–,–,–,–,–,–
COc1cc2c(cc1OC)C(CCN)=NCC2,31.7 µM,2.06 µM,43.3 µM,36.7 µM,30.5 µM,10.3 µM,33.1 µM,> 100 µM,31.1 µM,22.8 µM,–,–,–,–,–,–,–
COc1ccc(SCc2cc(OC)ccc2OC)cc1,> 100 µM,> 100 µM,> 51.3 µM,> 100 µM,32.7 µM,> 100 µM,> 100 µM,> 100 µM,> 100 µM,> 100 µM,–,–,–,–,–,–,–
CC1OC(NCCNCCNC2OC(C)C(O)C(O)C2O)C(O)C(O)C1O (stereo not given),> 100 µM,> 100 µM,> 100 µM,> 100 µM,> 100 µM,> 100 µM,> 100 µM,> 100 µM,> 100 µM,> 100 µM,–,–,–,–,–,–,–
CC1=NNC(=O)C1C1(C(=O)O)CC(c2c[nH]c3ccccc23)=NC(=S)N1 (stereo not given),> 100 µM,90.1 µM,73.9 µM,39.6 µM,> 100 µM,62.6 µM,> 100 µM,91.1 µM,> 100 µM,> 100 µM,–,–,–,–,–,–,–
Cc1nc2c(Cl)cc(Cl)cc2c2c1CCO2,> 100 µM,> 100 µM,> 100 µM,> 100 µM,> 100 µM,> 100 µM,> 100 µM,> 100 µM,> 100 µM,> 100 µM,–,–,–,–,–,–,–
CCOC(=O)NC(Nc1ccc(F)cc1F)(C(F)(F)F)C(F)(F)F,> 100 µM,> 100 µM,> 100 µM,> 100 µM,> 100 µM,> 100 µM,> 100 µM,> 100 µM,> 100 µM,> 100 µM,–,–,–,–,–,–,–
CC(O)C(CO)NC(=O)C1CSSCC(NC(=O)C(N)Cc2ccccc2)C(=O)NC(Cc2ccccc2)C(=O)NC(Cc2c[nH]c3ccccc23)C(=O)NC(CCCCN)C(=O)NC(C(C)O)C(=O)N1 (stereo not given),> 100 µM,> 100 µM,> 100 µM,> 100 µM,> 100 µM,> 100 µM,> 100 µM,> 100 µM,> 100 µM,> 100 µM,–,–,–,–,–,–,–
O=C(COc1cc(=O)oc2ccccc12)c1ccccc1,36.4 µM,> 100 µM,> 100 µM,> 100 µM,> 100 µM,89.9 µM,93.8 µM,87.4 µM,> 100 µM,> 100 µM,–,–,–,–,–,–,–

Structure (SMILES),TGI [1],TGI [2],TGI [3],TGI [4],TGI [5],TGI [6],TGI [7],TGI [8],TGI [9],TGI [10],GI50 [1],GI50 [3],GI50 [4],GI50 [6],GI50 [8],GI50 [2],GI50 [7]
COc1ccc2c(c1)/C(=C\c1c(Cl)nc3n1CCS3)C(=O)N2,> 100 µM,17.2 µM,> 100 µM,> 100 µM,6.54 µM,24.4 µM,> 100 µM,44.5 µM,32.7 µM,28.1 µM,–,–,–,–,–,–,–
CCC1c2[nH]c3ccccc3c2C[C@H]2C(=O)NC(C)C(=O)N12 (stereo not given in full),> 100 µM,> 100 µM,> 100 µM,> 100 µM,> 100 µM,> 100 µM,> 100 µM,> 100 µM,> 100 µM,> 100 µM,–,–,–,–,–,–,–
CS(=O)(=O)OCCN(CCOS(C)(=O)=O)c1ccc(C=Nc2ccc(-c3csc(Cc4ccccc4)n3)cc2)c(Cl)c1,> 84 µM,35.7 µM,76.9 µM,> 57.3 µM,> 76.3 µM,> 76 µM,> 66 µM,> 86.3 µM,> 84.2 µM,> 100 µM,–,–,–,–,–,–,–
COc1ccc(-c2cc(-c3ccc(C)cc3)n(C3OC(COC(C)=O)C(OC(C)=O)C(OC(C)=O)C3OC(C)=O)c(=S)c2C#N)cc1 (stereo not given),> 100 µM,> 100 µM,> 100 µM,> 100 µM,> 100 µM,> 100 µM,> 100 µM,> 100 µM,> 100 µM,> 100 µM,–,–,–,–,–,–,–
COC(=O)C1(Cc2ccc3c(c2)CCC3)Cc2ccc3c(c2C1=O)CCC3 (stereo not given),> 100 µM,8.83 µM,> 100 µM,> 65.3 µM,5.78 µM,18.8 µM,> 100 µM,> 72.6 µM,> 68.6 µM,> 90.1 µM,–,–,–,–,–,–,–
CCO/N=C\c1ccc2oc(-c3ccccc3)cc(=O)c2c1,37.2 µM,12.2 µM,> 100 µM,> 48.7 µM,0.105 µM,0.265 µM,12.5 µM,16.3 µM,63.6 µM,34 µM,–,–,–,–,–,–,–
CCCC(=O)OCC1OC(n2cc(F)c(=O)[nH]c2=O)CC1OC(=O)CCC (stereo not given),> 10 µM,> 10 µM,> 10 µM,> 10 µM,> 10 µM,> 10 µM,> 10 µM,> 10 µM,> 10 µM,> 10 µM,–,–,–,–,–,–,–
O=C(NC(=S)Nc1ccc(Br)cc1)c1ccc2c(c1)Sc1ccccc1O2,> 100 µM,> 100 µM,> 100 µM,> 100 µM,> 100 µM,> 100 µM,> 100 µM,> 100 µM,> 100 µM,> 100 µM,–,–,–,–,–,–,–
C/C(Cc1ccc2c(c1)OCO2)=N\N=c1\sc2ccccc2n1C,> 100 µM,> 100 µM,> 100 µM,> 100 µM,> 100 µM,> 100 µM,> 100 µM,> 100 µM,> 100 µM,> 100 µM,–,–,–,–,–,–,–
COc1ccc(N2C(=O)C3ON(Cc4ccc(CC(N)=O)cc4)C(c4c5ccccc5c(C)c5ccccc45)C3C2=O)cc1 (stereo not given),77.9 µM,51.2 µM,38 µM,> 100 µM,> 100 µM,> 100 µM,> 100 µM,> 100 µM,80.1 µM,47.8 µM,–,–,–,–,–,–,–
N=C1OC(CN2CCN(c3ccccc3)CC2)CN1C(=O)Nc1ccccc1 (stereo not given),> 100 µM,> 100 µM,> 100 µM,> 100 µM,> 100 µM,> 100 µM,> 100 µM,> 100 µM,> 100 µM,> 100 µM,–,–,–,–,–,–,–
Nc1cc(CO)cc(Nc2c3ccccc3nc3ccccc23)c1,31.9 µM,> 100 µM,> 100 µM,31.5 µM,35.1 µM,18.9 µM,29.5 µM,25.3 µM,34.4 µM,30.1 µM,–,–,–,–,–,–,–
Cc1cc(=O)[nH]c2cc(NC(=O)C(C)NC(=O)C(C)NC(=O)C(C)NC(=O)OC(C)(C)C)ccc12 (stereo not given),> 15 µM,> 15 µM,> 15 µM,> 15 µM,> 15 µM,> 15 µM,> 15 µM,> 15 µM,> 15 µM,> 15 µM,–,–,–,–,–,–,–
COc1c(C(=O)/C(=N/Nc2ccc(C(=O)O)cc2)C(C)=O)c(O)cc2occc12,> 100 µM,> 100 µM,> 100 µM,> 100 µM,> 100 µM,> 100 µM,> 100 µM,> 100 µM,> 100 µM,> 100 µM,–,–,–,–,–,–,–
ClCCCN1CCN(CCCl)CC1,265 µM,62.3 µM and 141 µM,> 965 µM,608 µM,742 µM,356 µM,348 µM,456 µM,> 745 µM,> 903 µM,7.09 µM,82.9 µM,23.9 µM,54.9 µM,40.8 µM,–,–
CN(C)N1C(=O)C(=O)N(c2cccc3ccccc23)C1=O,> 10 µM,> 10 µM,> 10 µM,> 10 µM,> 10 µM,> 10 µM,> 10 µM,> 10 µM,> 10 µM,> 10 µM,–,–,–,–,–,–,–
COc1ccc2[nH]c3ccc4cc[n+](CCN5CCC(C6CCN(CC[n+]7ccc8ccc9[nH]c%10ccc(OC)cc%10c9c8c7)CC6)CC5)cc4c3c2c1,50 µM,50 µM and 8.43 µM,1.41 µM and 7.67 µM,50 µM and > 58.6 µM,50 µM,> 50 µM and 5.27 µM,50 µM and > 100 µM,44.8 µM and 42.2 µM,50 µM,27.2 µM,–,0.164 µM,–,> 50 µM,34.5 µM,4.47 µM and 0.899 µM,8.28 µM
